Laboratory results taken from PubChem BioAssay AID330 (DTP/NCI, 2004).
Several values for one entry are separate records, joined by “and”; a condition that tells them apart may be missing. Equal entries are not always repeated. Toxic doses and inconclusive results are not listed.

Tested on: P388 leukemia ip, CD2F1 mice, survival T/C
Assay: NCI In Vivo Anticancer Drug Screen. Data for tumor model P388 Leukemia (intraperitoneal) in CD2F1 (CDF1) mice
Conditions: endpoint: median survival time, higher = longer survival
How it was run: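 Mice carrying the transplanted tumor received test compound or vehicle. Survival was recorded in each group, and the value is the treated-group measurement divided by that of the vehicle-treated control group.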

[1] = dose: 50.0 mg/kg/injection, schedule: Q01DX005 (ip), vehicle: Klucel (hydroxypropylcellulose) (HPC)
[2] = dose: 100.0 mg/kg/injection, schedule: Q01DX005 (ip), vehicle: Klucel (hydroxypropylcellulose) (HPC)
[3] = dose: 200.0 mg/kg/injection, schedule: Q01DX005 (ip), vehicle: Klucel (hydroxypropylcellulose) (HPC)
[4] = dose: 60.0 mg/kg/injection, schedule: Q01DX005 (ip), vehicle: saline with Tween-80
[5] = dose: 120.0 mg/kg/injection, schedule: Q01DX005 (ip), vehicle: saline with Tween-80
[6] = dose: 240.0 mg/kg/injection, schedule: Q01DX005 (ip), vehicle: saline with Tween-80
[7] = dose: 50.0 mg/kg/injection, schedule: Q01DX009 (ip), vehicle: Klucel (hydroxypropylcellulose) (HPC)
[8] = dose: 100.0 mg/kg/injection, schedule: Q01DX009 (ip), vehicle: Klucel (hydroxypropylcellulose) (HPC)
[9] = dose: 200.0 mg/kg/injection, schedule: Q01DX009 (ip), vehicle: Klucel (hydroxypropylcellulose) (HPC)
[10] = dose: 50.0 mg/kg/injection, schedule: Q01DX005 (ip), vehicle: saline with Tween-80
[11] = dose: 100.0 mg/kg/injection, schedule: Q01DX005 (ip), vehicle: saline with Tween-80
[12] = dose: 200.0 mg/kg/injection, schedule: Q01DX005 (ip), vehicle: saline with Tween-80

[Br][Sn]([Br])([CH2][Sn]([Br])([Br])[c]1ccccc1)[c]1ccccc1 was tested, and the T/C [1] was 97 % of control, the T/C [2] was 99 % of control and the T/C [3] was 89 % of control.
For O=C1NNC(c2ccccc2)=Nc2[nH]ncc21, the T/C (dose: 100.0 mg/kg/injection, schedule: Q04DX002 (ip), vehicle: saline with Tween-80) was 96 % of control, the T/C (dose: 200.0 mg/kg/injection, schedule: Q04DX002 (ip), vehicle: saline with Tween-80) was 93 % of control and the T/C (dose: 400.0 mg/kg/injection, schedule: Q04DX002 (ip), vehicle: saline with Tween-80) was 93 % of control.
NC(CS)=NCC1C2CC3CC(C2)CC1C3 (stereo not given) was tested, and the T/C (dose: 0.78 mg/kg/injection, schedule: Q01DX009 (ip), vehicle: Klucel (hydroxypropylcellulose) (HPC)) was 100 % of control, the T/C (dose: 1.56 mg/kg/injection, schedule: Q01DX009 (ip), vehicle: Klucel (hydroxypropylcellulose) (HPC)) was 100 % of control and the T/C (dose: 3.12 mg/kg/injection, schedule: Q01DX009 (ip), vehicle: Klucel (hydroxypropylcellulose) (HPC)) was 100 % of control and 91 % of control. For the same molecule, the T/C (dose: 6.25 mg/kg/injection, schedule: Q01DX009 (ip), vehicle: Klucel (hydroxypropylcellulose) (HPC)) was 104 % of control.
For CN1Cc2[nH]c3c(c2C(O)C1)C(=O)CC(C)(C)C3 (stereo not given), the T/C (dose: 50.0 mg/kg/injection, schedule: Q04DX002 (ip), vehicle: saline) was 94 % of control, the T/C (dose: 100.0 mg/kg/injection, schedule: Q04DX002 (ip), vehicle: saline) was 103 % of control and the T/C (dose: 200.0 mg/kg/injection, schedule: Q04DX002 (ip), vehicle: saline) was 101 % of control.
In the case of FC(F)(F)c1ssc1C(F)(F)F, the T/C (dose: 100.0 mg/kg/injection, schedule: Q01DX001 (ip), vehicle: other) is reported as 99 % of control and the T/C (dose: 200.0 mg/kg/injection, schedule: Q01DX001 (ip), vehicle: other) is reported as 104 % of control.
For Cc1oc2ccccc2c(=O)c1Cn1nnc2ccccc21, the T/C [4] was 103 % of control, the T/C [5] was 103 % of control and the T/C [6] was 94 % of control.
In the case of Cc1ccccc1-n1c(C)nc2c(cnn2C)c1=O, the T/C [1] is reported as 100 % of control, the T/C [2] is reported as 95 % of control and the T/C [3] is reported as 97 % of control.
COC(=O)C[N+](=O)[O-] was tested, and the T/C (dose: 50.0 mg/kg/injection, schedule: Q01DX009 (ip), vehicle: saline) was 103 % of control, the T/C (dose: 100.0 mg/kg/injection, schedule: Q01DX009 (ip), vehicle: saline) was 99 % of control and the T/C (dose: 200.0 mg/kg/injection, schedule: Q01DX009 (ip), vehicle: saline) was 110 % of control.
CN(C(=O)C(Cl)Cl)c1ccc(-c2csc(Cc3ccccc3)n2)cc1 was tested, and the T/C (dose: 100.0 mg/kg/injection, schedule: Q04DX003 (ip), vehicle: Klucel (hydroxypropylcellulose) (HPC)) was 101 % of control, the T/C (dose: 200.0 mg/kg/injection, schedule: Q04DX003 (ip), vehicle: Klucel (hydroxypropylcellulose) (HPC)) was 99 % of control and the T/C (dose: 400.0 mg/kg/injection, schedule: Q04DX003 (ip), vehicle: Klucel (hydroxypropylcellulose) (HPC)) was 97 % of control.
CC(C)CC(=O)CC1(C)CCC(c2ccoc2)O1 (stereo not given) was tested, and the T/C (dose: 25.0 mg/kg/injection, schedule: Q01DX009 (ip), vehicle: saline with Tween-80) was 102 % of control, the T/C (dose: 50.0 mg/kg/injection, schedule: Q01DX009 (ip), vehicle: saline with Tween-80) was 101 % of control and the T/C (dose: 100.0 mg/kg/injection, schedule: Q01DX009 (ip), vehicle: saline with Tween-80) was 107 % of control.
O=S(=O)(O/C1=C/CCCCCC1)C(F)(F)F was tested, and the T/C (dose: 50.0 mg/kg/injection, schedule: Q01DX009 (ip), vehicle: olive oil, sesame oil, peanut oil) was 97 % of control, the T/C (dose: 100.0 mg/kg/injection, schedule: Q01DX009 (ip), vehicle: olive oil, sesame oil, peanut oil) was 113 % of control and the T/C (dose: 200.0 mg/kg/injection, schedule: Q01DX009 (ip), vehicle: olive oil, sesame oil, peanut oil) was 103 % of control.
COc1ccccc1C1C(C#N)C(=O)NC(=O)C1C#N (stereo not given) was tested, and the T/C [7] was 113 % of control, the T/C [8] was 105 % of control and the T/C [9] was 105 % of control.
For Nc1nc(F)nc2c1ncn2C1OC(CO)C(O)C1O (stereo not given), the T/C (dose: 53.0 mg/kg/injection, schedule: Q03HX024 (ip), vehicle: saline with Tween-80) was 253 % of control, the T/C (dose: 80.0 mg/kg/injection, schedule: Q03HX024 (ip), vehicle: saline with Tween-80) was 283 % of control and the T/C (dose: 120.0 mg/kg/injection, schedule: Q03HX024 (ip), vehicle: saline with Tween-80) was 123 % of control.
COC(=O)C1(CC(=O)c2ccccc2)NC(=S)NC(=O)C1C#N (stereo not given) was tested, and the T/C [4] was 103 % of control, the T/C [5] was 98 % of control and the T/C [6] was 98 % of control.
O=[N+]([O-])c1ccc(-c2csc(Nc3ccccn3)n2)o1 was tested, and the T/C (dose: 12.5 mg/kg/injection, schedule: Q01DX005 (ip), vehicle: saline with Tween-80) was 95 % of control, the T/C (dose: 25.0 mg/kg/injection, schedule: Q01DX005 (ip), vehicle: saline with Tween-80) was 99 % of control and the T/C [10] was 88 % of control and 92 % of control.
In the case of CC1(C)OC2CCC3OC(=O)C(C)(Cl)C3C2O1 (stereo not given), the T/C (dose: 12.5 mg/kg/injection, schedule: Q01DX009 (ip), vehicle: other) is reported as 116 % of control, the T/C (dose: 25.0 mg/kg/injection, schedule: Q01DX009 (ip), vehicle: other) is reported as 107 % of control and the T/C (dose: 50.0 mg/kg/injection, schedule: Q01DX009 (ip), vehicle: other) is reported as 99 % of control. The T/C (dose: 100.0 mg/kg/injection, schedule: Q01DX009 (ip), vehicle: other) was 116 % of control.
In the case of COC(=O)c1c2csc3ccccc3n-2c(=O)c1C, the T/C [4] is reported as 102 % of control, the T/C [5] is reported as 101 % of control and the T/C [6] is reported as 95 % of control.
For CN(C)P(=S)(N(C)C)N1CCOCC1, the T/C (dose: 50.0 mg/kg/injection, schedule: Q04DX003 (ip), vehicle: saline with Tween-80) was 104 % of control, the T/C (dose: 100.0 mg/kg/injection, schedule: Q04DX003 (ip), vehicle: saline with Tween-80) was 88 % of control and the T/C (dose: 200.0 mg/kg/injection, schedule: Q04DX003 (ip), vehicle: saline with Tween-80) was 96 % of control.
For COC(=O)C(OC)C(O)C(OC)OC (stereo not given), the T/C [10] was 100 % of control, the T/C [11] was 101 % of control and the T/C [12] was 104 % of control.
For Nc1ccc(NCCCC2CCCN3CCCCC23)c2c(=O)c3ccccc3sc12 (stereo not given), the T/C (dose: 13.5 mg/kg/injection, schedule: Q01DX005 (ip), vehicle: saline with Tween-80) was 104 % of control, the T/C (dose: 27.0 mg/kg/injection, schedule: Q01DX005 (ip), vehicle: saline with Tween-80) was 91 % of control and the T/C (dose: 54.0 mg/kg/injection, schedule: Q01DX005 (ip), vehicle: saline with Tween-80) was 101 % of control. For the same molecule, the T/C [11] was 110 % of control, the T/C (dose: 108.0 mg/kg/injection, schedule: Q01DX005 (ip), vehicle: saline with Tween-80) was 107 % of control and the T/C [12] was 120 % of control.
With COc1ccc(C/C(N)=N\O)cc1 the T/C [7] was 108 % of control, the T/C [8] was 106 % of control and the T/C [9] was 117 % of control.
For COc1ccccc1NC(=O)CC(=O)N1N=C(C)C(N=Nc2ccc(I)cc2)C1=O (stereo not given), the T/C [10] was 95 % of control, the T/C [11] was 100 % of control and the T/C [12] was 92 % of control.
